Data from the supplement of paper PMC10307832.

How the values were obtained:
Assay in all cases: relative viability (nuclei count vs DMSO), 5 days (fraction); higher = more cells survive
JZL-184 + Bortezomib = compound: C1CN(CCC1C(C2=CC3=C(C=C2)OCO3)(C4=CC5=C(C=C4)OCO5)O)C(=O)OC6=CC=C(C=C6)[N+](=O)[O-] [JZL-184] + CC(C)C[C@H](NC(=O)[C@H](Cc1ccccc1)NC(=O)c1cnccn1)B(O)O [Bortezomib] (partner 0.002 µM)
How it was run: (§1)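 Lung cancer cell lines in 1536-well plates were dosed by pin tool the day after seeding, either with one drug alone or with a fixed anchor-drug dose plus five library-drug doses (not always all listed) in √10 steps. After 5 days, cells were fixed and their nuclei stained in one step (final 0.05% Triton X-100, 1% formaldehyde, 1 ug/ml Hoechst), then counted on 4× images. Relative viability is the nuclei count in treated wells divided by that in vehicle wells. Values are medians of duplicate plates.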

JZL-184 + Navitoclax = compound: C1CN(CCC1C(C2=CC3=C(C=C2)OCO3)(C4=CC5=C(C=C4)OCO5)O)C(=O)OC6=CC=C(C=C6)[N+](=O)[O-] [JZL-184] + CC1(C)CCC(c2ccc(Cl)cc2)=C(CN2CCN(c3ccc(C(=O)NS(=O)(=O)c4ccc(N[C@H](CCN5CCOCC5)CSc5ccccc5)c(S(=O)(=O)C(F)(F)F)c4)cc3)CC2)C1 [Navitoclax] (partner 0.5 µM)
How it was run: as §1

JZL-184 + OSI-027 = compound: C1CN(CCC1C(C2=CC3=C(C=C2)OCO3)(C4=CC5=C(C=C4)OCO5)O)C(=O)OC6=CC=C(C=C6)[N+](=O)[O-] [JZL-184] + COc1cccc2cc(-c3nc([C@H]4CC[C@H](C(=O)O)CC4)n4ncnc(N)c34)[nH]c12 [OSI-027] (partner 0.5 µM)
How it was run: as §1

JZL-184 + Lapatinib = compound: C1CN(CCC1C(C2=CC3=C(C=C2)OCO3)(C4=CC5=C(C=C4)OCO5)O)C(=O)OC6=CC=C(C=C6)[N+](=O)[O-] [JZL-184] + CS(=O)(=O)CCNCc1ccc(-c2ccc3ncnc(Nc4ccc(OCc5cccc(F)c5)c(Cl)c4)c3c2)o1 [Lapatinib] (partner 2 µM)
How it was run: as §1

JZL-184 + Pictilisib = compound: C1CN(CCC1C(C2=CC3=C(C=C2)OCO3)(C4=CC5=C(C=C4)OCO5)O)C(=O)OC6=CC=C(C=C6)[N+](=O)[O-] [JZL-184] + CS(=O)(=O)N1CCN(Cc2cc3nc(-c4cccc5[nH]ncc45)nc(N4CCOCC4)c3s2)CC1 [Pictilisib] (partner 1 µM)
How it was run: as §1

Row | Cell Line | relative viability (JZL-184 + Bortezomib; first compound 0.04 µM) | relative viability (JZL-184 + Bortezomib; first compound 0.4 µM) | relative viability (JZL-184 + Bortezomib; first compound 1.265 µM) | relative viability (JZL-184 + Bortezomib; first compound 4 µM) | relative viability (JZL-184 + Navitoclax; first compound 0.04 µM) | relative viability (JZL-184 + Navitoclax; first compound 0.4 µM) | relative viability (JZL-184 + Navitoclax; first compound 1.265 µM) | relative viability (JZL-184 + Navitoclax; first compound 4 µM) | relative viability (JZL-184 + OSI-027; first compound 0.04 µM) | relative viability (JZL-184 + OSI-027; first compound 0.4 µM) | relative viability (JZL-184 + OSI-027; first compound 1.265 µM) | relative viability (JZL-184 + OSI-027; first compound 4 µM) | relative viability (JZL-184 + Lapatinib; first compound 0.04 µM) | relative viability (JZL-184 + Lapatinib; first compound 0.4 µM) | relative viability (JZL-184 + Lapatinib; first compound 1.265 µM) | relative viability (JZL-184 + Lapatinib; first compound 4 µM) | relative viability (JZL-184 + Pictilisib; first compound 0.04 µM) | relative viability (JZL-184 + Pictilisib; first compound 0.4 µM) | relative viability (JZL-184 + Pictilisib; first compound 1.265 µM) | relative viability (JZL-184 + Pictilisib; first compound 4 µM)
1 | NCI-H596 | 1.21 | 0.948 | 1.17 | 1.08 | 0.936 | 0.993 | 0.93 | 0.791 | 0.749 | 0.591 | 0.71 | 0.696 | 1.12 | 0.948 | 1.04 | 0.992 | 0.397 | 0.393 | 0.429 | 0.356
2 | LCLC-97TM1 | 0.612 | 0.624 | 0.804 | 0.573 | 0.362 |  | 0.663 | 0.269 | 0.493 | 0.393 | 0.504 | 0.559 | 1.08 |  | 1.01 | 0.858 | 0.259 |  | 0.237 | 0.201
3 | NCI-H1993 | 1.17 | 1.14 | 1.21 | 1.22 | 0.906 | 0.884 | 1.06 | 1.03 | 0.523 | 0.498 | 0.497 | 0.532 | 0.767 | 0.807 | 0.827 | 0.885 | 0.721 | 0.864 | 0.847 | 0.794
4 | HARA | 1.11 | 0.967 | 1.17 | 1.09 | 1.19 | 1.06 | 1.15 | 1.14 | 0.547 | 0.444 | 0.614 | 0.456 | 0.839 | 0.773 | 0.807 | 0.751 | 0.356 | 0.363 | 0.424 | 0.577
5 | NCI-H460 | 1.83 | 1.05 | 1.05 | 1.11 | 1.37 | 1.02 | 1.02 | 1.12 | 1.03 | 0.678 | 0.575 | 0.632 | 1.86 | 0.894 | 1.09 | 0.881 | 0.385 | 0.332 | 0.404 | 0.374
6 | NCI-H1650 | 0.192 | 0.179 | 0.228 | 0.198 | 1.64 | 1.08 | 1.39 | 1.06 | 0.674 | 0.504 | 0.837 | 0.608 | 0.821 | 0.735 | 0.939 | 0.718 | 0.734 | 0.53 | 0.741 | 0.696
7 | EKVX | 1.12 | 0.905 | 1.04 | 0.967 | 1 | 0.946 | 0.922 | 0.895 | 0.752 | 0.536 | 0.669 | 0.704 | 0.193 | 0.221 | 0.194 | 0.2 | 0.501 | 0.407 | 0.446 | 0.432
